From PMC5228037, “Discovery and Mechanistic Characterization of Selective Inhibitors of H2S-producing Enzyme: 3-Mercaptopyruvate Sulfurtransferase (3MST) Targeting Active-site Cysteine Persulfide” (Scientific Reports, 2017)

Molecular target: T1, 3MST-overexpressing COS7 cells (Mus musculus, UniProt Q99J99)
T1 construct: expressed in transfected cells; host or cells: COS7 (transient)
T1 sequence (Q99J99 1-297): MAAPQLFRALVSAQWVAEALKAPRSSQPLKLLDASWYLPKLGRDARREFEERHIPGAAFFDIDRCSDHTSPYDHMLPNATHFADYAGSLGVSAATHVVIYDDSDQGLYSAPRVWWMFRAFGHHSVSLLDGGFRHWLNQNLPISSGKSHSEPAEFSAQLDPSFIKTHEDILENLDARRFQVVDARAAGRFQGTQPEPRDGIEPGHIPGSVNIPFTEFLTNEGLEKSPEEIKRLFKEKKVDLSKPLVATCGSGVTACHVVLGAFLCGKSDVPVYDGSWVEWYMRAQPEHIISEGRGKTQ
Assay: Live-cell fluorescence imaging with SSP4 in 3MST-overexpressing COS7 cells
Assay type: cell-based
Experimental: Figure 2 Selectivity assessment of hit compounds for 3MST over other H2S/polysulfides-producing enzymes and rhodanese. (a) 3MST-Inhibitory activity of hit compounds at 10 and 100 μM in cell lysate of 3MST-expressing HEK293 cells. 100 μM 3MP and 100 μM DTT were added to the solution containing 0.1% DMSO as a cosolvent, and the mixture was incubated at 37 °C for 15 min. H2S production was measured by gas chromatography. All data are presented as the mean ± S.D. (100 μM: n = 3 or 4; 10 μM: n = 3). (b) Selectivity assessment of hit compounds at 100 μM towards CBS and CSE. Only DMSO was added to the control sample instead of DMSO solution containing hit compounds. H2S production was monitored by gas chromatography. All data are presented as the mean (n = 3). (c) Detection method for rhodanese activity (Sörbo method). (d) Selectivity assessment of hit compounds towards rhodanese. The results are mean ± S.D. (n = 4, three times). These values were determined based upon the absorbance of [Fe(SCN)3] at 460 nm (Sӧrbo method). […] (e) Fluorescence confocal microscopic images of live COS7 cells transfected with 3MST or an empty vector[9] as a control. […] F/F0 was calculated by dividing the fluorescence intensity of cells after addition of 500 μM 3MP (10 min) by that of cells before addition of 500 μM 3MP (Pre), then the mean F/F0 was determined from 5 cells. […]

3MST activity in living cells (SSP4 sulfane sulfur fluorescence after 500 μM 3MP) (1 μM compound, 3MST-overexpressing COS7 cells): almost completely suppressed | Cell-membrane permeability (concluded from suppression of 3MST activity in live COS7 cells): cell-membrane permeable
SMILES: Cc1cc(=O)[nH]c(SCC(=O)c2cccc3ccccc23)n1 [compound 3]
